# According to patent US20140105959A1, “METHOD AND DEVICE FOR REDUCING DERMAL FILLER ADVERSE EVENTS” (ALLERGAN, INC., priority 2012, published 2014):
# Experiments:
# [1] = system: hairless rat skin; experiment: bruising after dermal filler administration at patch-treated versus untreated rat skin; assay type: in vivo; conditions: cotton fabric patch, phenylephrine 400 ppm, 15 minutes, then dermal filler, compared with adjacent untreated skin
# [2] = system: hairless rat skin; experiment: vasoconstriction in hairless rat skin after topical phenylephrine patch; assay type: in vivo
# From the text: In certain embodiments, mechanisms are provided that are effective to actively enhance transport of vasoactive drugs across the skin (mechanisms will be referred to as “enhancers” in the rest of the invention). For example, in one embodiment of the invention, the method includes the step of treating a skin site selected for dermal filler administration with a mechanism effective to enhance drug delivery across the skin prior to treating the skin site with the device or compound containing the active agent effective to reduce or ameliorate the adverse event. For example, the mechanism, hereinafter sometimes referred to as “mechanical enhancer” may comprise a mechanical device capable of gently stripping of the superficial skin layers from the epidermis. For example, the mechanism may be an adhesive tape or abrasive surface. It has been discovered that use of such mechanisms increase phenylephrine diffusion through the skin and result in significant reduction in skin's vasoconstriction time (e.g. 5 minutes) by phenylephrine using the same patch device. In certain embodiments, it might be useful to apply the mechanism, enhancement device, after filler administration, preferably in devices where the vasoactive drug may interfere with safety and/or potency of fillers. […]
# [3] = system: nasolabial folds; experiment: visible bruising after Juvederm XC injection into patch-treated nasolabial folds of a patient; assay type: in vivo, human; conditions: microneedle roller pretreatment, cotton-based patch about 300 ppm phenylephrine for about 7 minutes, then 0.6 cc Juvederm XC per nasolabial fold
# Procedure: Their physician applies, along both nasolabial folds, a tool having a rolling head with numerous microneedles to penetrate the dermis with numerous punctures about one millimeter in depth. They then apply a phenylephrine-containing cotton-based patch, formulated to about 300 ppm phenylephrine, in accordance with the invention, on the skin along the left nasolabial fold, in a way that covers the entire injection site. The patch is left in place for about 7 minutes. The physician removes the patch and then carefully injects 0.6 cc of a HA-based dermal filler, specifically, Juvederm® XC, (available from Allergan, Inc., Irvine, Calif.) into the phenylephrine-treated dermis just beneath the fold line, using a 27 gauge needle. The treatment procedure is repeated for the right nasolabial fold, for example, using another identical patch and another 0.6 cc Juvederm® XC.
smiles,measurement,setting,value
CNC[C@H](O)c1cccc(O)c1 [phenylephrine],"bruising at the vasoconstricted skin site, particularly along the line of injection",[1],lower than at the untreated skin site
same,vasoconstriction in skin regions directly underneath the patch,"[2]; cotton fabric patch, phenylephrine 400 ppm, removed after 15 minutes, hairless rat",significant vasoconstriction
same,"time to release, diffuse and cause significant vasoconstriction","[2]; phenylephrine formulated at 100 ppm in a topically placed cotton gauze, hairless rat skin",about 10 minutes
same,skin's vasoconstriction time,"[2]; same patch device, after mechanical enhancer (adhesive tape or abrasive surface stripping superficial skin layers)",5 min
same,bruising one week after the procedure,[3]; one week,"no bruising, nor red marks"
same,visible bruising three days after the treatment procedure,[3]; three days,does not notice any visible bruising
